# Laboratory results taken from patent US12679878B2, “CRF2 receptor agonists and their use in therapy” (SANOFI, priority 2020, dated 2026).
# Where two headings read alike, the source gives them in different places. Starred links: 1 amine or outer side, 2 acyl side, 3 side chain; linkers in the order of their positions; H or OH if unused. Non-standard residues stand in square brackets, D forms with d. Residues, ends and D or L forms follow the SMILES beside them. Groups on a side chain read outwards from the residue. *: point of attachment. C18 diacid = O=C(O)CCCCCCCCCCCCCCCCC(=O)*; γGlu = O=C(O)[C@H](CCC(=O)[*:2])N[*:1]; AEEA = NCCOCCOCC(=O)O; Aib = CC(C)(N)C(=O)O
# Key:
# [1] = target: T1, human CRF2α receptor (Homo sapiens, UniProt Q13324); assay: cAMP agonism at human CRF2 α receptor in TeloHEAC cells (Example 7); format: cell-based; settings: cAMP HTRF, TeloHEAC cells stably expressing human CRF2 α
# T1 construct: expressed in transfected cells; host or cells: TeloHEAC
# T1 sequence (Q13324 1-411): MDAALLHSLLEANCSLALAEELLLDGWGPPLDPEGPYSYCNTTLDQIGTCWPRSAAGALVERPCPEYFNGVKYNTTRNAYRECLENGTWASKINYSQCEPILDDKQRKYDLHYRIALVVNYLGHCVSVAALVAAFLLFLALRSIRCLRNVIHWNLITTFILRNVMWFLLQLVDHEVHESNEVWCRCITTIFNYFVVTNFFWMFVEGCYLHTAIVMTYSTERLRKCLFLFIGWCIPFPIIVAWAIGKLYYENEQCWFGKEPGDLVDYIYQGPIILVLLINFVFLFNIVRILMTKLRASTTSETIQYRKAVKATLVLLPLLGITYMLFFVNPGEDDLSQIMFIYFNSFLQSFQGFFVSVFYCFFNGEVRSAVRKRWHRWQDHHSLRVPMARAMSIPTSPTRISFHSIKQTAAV
# How it was run: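 HTRF ratio 665/620 nm, read 1 h after lysis reagents, reports cAMP. Cells: thawed stocks, 2000/well, 30 min RT with compound in HBSS, 20 mM HEPES, 0 or 0.1% HSA, 2 mM IBMX. Activity normalised to UCN2 1000 nM = 100%; EC50 from half-maximal activation.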
# [2] = tested on: rat CRF2R α receptor; assay: cAMP agonism at rat CRF2R α receptor in A7R5 rat aortic smooth muscle cells (Example 8); format: cell-based; settings: cAMP HTRF, A7R5 rat aortic smooth muscle cell line, 0% HSA
# How it was run: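 Potency (EC50) is the concentration reaching half-maximal activation, with responses scaled so that 1000 nM urocortin 2 equals 100%. Intracellular cAMP was quantified by homogeneous time-resolved fluorescence at 665/620 nm, 1 h after lysis-buffer reagents. Compound stimulation lasted 30 min at room temperature on 2000 IBMX-treated (2 mM) cells per well in HEPES-buffered HBSS.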
# [3] = target: T2, CRF1R receptor (Homo sapiens, UniProt P34998); assay: cAMP activity at anti-target CRF1R, CRF1R-overexpression CHO cell line (Example 9); format: cell-based; settings: CRF1R-overexpression CHO cell line; for EC50: 0% HSA; for Emax: read-out: Emax (%)
# T2 construct: host or cells: CHO-K1 clone 2
# T2 sequence (P34998 24-415): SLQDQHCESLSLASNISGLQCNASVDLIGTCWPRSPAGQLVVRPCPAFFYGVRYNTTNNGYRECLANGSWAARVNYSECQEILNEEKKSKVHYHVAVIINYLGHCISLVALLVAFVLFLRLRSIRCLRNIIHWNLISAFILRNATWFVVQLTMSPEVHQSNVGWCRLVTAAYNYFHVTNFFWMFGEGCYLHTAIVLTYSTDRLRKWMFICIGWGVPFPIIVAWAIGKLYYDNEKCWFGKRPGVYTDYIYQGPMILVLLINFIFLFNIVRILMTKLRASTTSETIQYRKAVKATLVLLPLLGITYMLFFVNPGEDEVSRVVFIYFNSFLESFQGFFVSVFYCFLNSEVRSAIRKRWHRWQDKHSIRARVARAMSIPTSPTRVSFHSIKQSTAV
# How it was run: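 Using thawed CRF1R-overexpressing CHO cells at 2000 per well, compound is applied for 30 min at RT in HBSS/HEPES buffer with IBMX. Cellular cAMP content is determined via HTRF, and percent activity is calculated against 1000 nM UCN2 defined as 100%.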
# [4] = Solubility in buffer systems by UPLC-UV (Example 13); format: physicochemical
# How it was run: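 Quantitation used UV peak area from UPLC of the 1:10-diluted supernatant, set against a reference-compound standard curve with extinction coefficients adjusted for amino acid sequence.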
# [5] = Physical stability, Thioflavin T fibrillation assay (Example 14); format: physicochemical; settings: 3 mg/ml, 37° C. shaking
# How it was run: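 Fibrillation tendency was judged from lag time and rise in Thioflavin T fluorescence, measured every 20 minutes over eight replicates per sample. Peptides at 3 mg/ml final were held at 37° C under cycles of 10 s shaking (960 rpm) and 50 s rest.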
# [6] = Physical stability, dynamic light scattering assay (Example 15); format: physicochemical; settings: Buffer B (100 mM acetate, pH 4.5, 2.7 mg/ml m-cresol)
# Procedure: The physical stability of the compounds was also assessed using a dynamic light scattering assay.
# In the present study, the physical stability of test compounds was assessed by determining the apparent hydrodynamic radius (Rh), the scattering intensity (I) and mass contribution (M) after synthesis (0 weeks) and after storage for 4 weeks at 40° C.
# For each solution of test compound, the hydrodynamic radius Rh and the diffusion constant D (related via the Stokes-Einstein equation) were determined as an average over triplicates. Both parameters were determined at different compound concentrations (e.g., Rh1 and D1: 1 mg/ml and Rh5 and D5: 5 mg/ml, Rh10 and D10: 10 mg/mL) in the same buffer system. The difference of these parameters between low and high peptide concentration is a surrogate for the DLS interaction parameter kD. […] In addition, the hydrodynamic radius Rh and the corresponding Scattering Intensity (%) were determined as an average over duplicates. The target concentration was 300 μM. Therefore, solutions from solid samples were prepared in a buffer system with a concentration of 300 μM compound based on the previously determined % purity.
# DLS measurements were performed on a DynaPro Plate Reader I (Wyatt Technology, Santa Barbara, CA, US) with an 837 nm laser light source at a scattering angle of 150°. The data were collected and processed with Dynamics V 7.8.1.3 or 7.8.2.18 software provided by Wyatt Technology.
# Hydrodynamic radii were determined with non-negatively constrained least squares (NNLS) methods using DYNALS algorithms with regularization fit. […] Samples were tempered over 1 hour at +25° C. and visually inspected before analysis.
# Samples were mixed with the aid of a pipet tip. Measurements were performed in 5 replicates. […] The plate was centrifuged for 2 minutes at 600 rcf. After removing the sealing, the samples were measured at +25° C.
# [7] = 0% HSA, read-out: EC50 [nM], 0% HSA
# [8] = pH 4.5, Solubility in Buffer B [mg/ml]
# [9] = pH 7.4, Solubility in Buffer C [mg/ml]
# [10] = Buffer A: 100 mM acetate buffer, pH 4.5
# [11] = Buffer B: 100 mM acetate buffer, pH 4.5, 2.7 mg/ml m-cresol
# [12] = 0.1% HSA, read-out: EC50 [nM], 0.1% HSA
SMILES,"EC50 [1, 7] [nM]",EC50 [2] [nM],EC50 [3] [nM],Emax [3] [%],"solubility at 1 h [4, 8] [µg/mL]","solubility at 1 h [4, 9] [µg/mL]","Increase in FI (fluorescence intensity) [5, 10]","Lag time [5, 10] [h]","Increase in FI (fluorescence intensity) [5, 11]","Lag time [5, 11] [h]","EC50 [1, 12] [nM]",Apparent Rh [nm] 0 weeks ([6]; 0 weeks) [nm],Scattering Intensity (I) [%] 0 weeks ([6]; 0 weeks) [%],Apparent Rh [nm] 4 weeks ([6]; 4 weeks at 40° C.) [nm],Scattering Intensity (I) [%] 4 weeks ([6]; 4 weeks at 40° C.) [%]
CC[C@H](C)[C@H](N)C(=O)N[C@H](C(=O)N[C@@H](CC(C)C)C(=O)N[C@@H](CO)C(=O)N[C@@H](CC(C)C)C(=O)N[C@@H](CC(=O)O)C(=O)N[C@H](C(=O)N1CCC[C@H]1C(=O)N[C@H](C(=O)N[C@@H](CCCCN)C(=O)N[C@@H](CC(C)C)C(=O)N[C@@H](CCCCNC(=O)COCCOCCNC(=O)COCCOCCNC(=O)CC[C@H](NC(=O)CCCCCCCCCCCCCCCCC(=O)O)C(=O)O)C(=O)N[C@@H](CCC(N)=O)C(=O)N[C@H](C(=O)N[C@@H](CC(C)C)C(=O)N[C@@H](CC(C)C)C(=O)N[C@@H](CCCCN)C(=O)N[C@@H](CCC(N)=O)C(=O)N[C@@H](CCC(=O)O)C(=O)N[C@@H](CCCNC(=N)N)C(=O)N[C@@H](CCC(N)=O)C(=O)N[C@@H](CCCCN)C(=O)N[C@@H](CCCCN)C(=O)N[C@@H](CCC(N)=O)C(=O)N[C@@H](CCCNC(=N)N)C(=O)N[C@@H](CCC(N)=O)C(=O)N[C@@H](CCC(N)=O)C(=O)N[C@@H](C)C(=O)N[C@@H](CCC(=O)O)C(=O)N[C@H](C(=O)N[C@@H](CC(N)=O)C(=O)NC(C)(C)C(=O)N[C@@H](CCC(N)=O)C(=O)N[C@H](C(=O)N[C@@H](CC(C)C)C(=O)N[C@@H](C)C(=O)N[C@@H](CCC(N)=O)C(=O)N[C@H](C(N)=O)C(C)C)[C@@H](C)CC)[C@@H](C)O)[C@@H](C)CC)[C@@H](C)CC)C(C)C)C(C)C [compound 75] (H-IVLSLDVPIKLK([AEEA-AEEA-γGlu-C18 diacid])QILLKQERQKKQRQQAETN[Aib]QILAQV-NH2),0.48,1.71,> 1000,2.7,> 9000,> 7900,No,>45,No,>45,,,,,
CC[C@H](C)[C@H](N)C(=O)N[C@H](C(=O)N[C@@H](CC(C)C)C(=O)N[C@@H](CO)C(=O)N[C@@H](CC(C)C)C(=O)N[C@@H](CC(=O)O)C(=O)N[C@@H](C(=O)N1CCC[C@H]1C(=O)N[C@H](C(=O)N[C@@H](CCCCN)C(=O)N[C@@H](CC(C)C)C(=O)N[C@@H](CCCCNC(=O)COCCOCCNC(=O)COCCOCCNC(=O)CC[C@H](NC(=O)CCCCCCCCCCCCCCCCC(=O)O)C(=O)O)C(=O)N[C@@H](CCC(N)=O)C(=O)N[C@H](C(=O)N[C@@H](CC(C)C)C(=O)N[C@@H](CC(C)C)C(=O)N[C@@H](CCC(=O)O)C(=O)N[C@@H](CCC(N)=O)C(=O)N[C@@H](C)C(=O)N[C@@H](CCCNC(=N)N)C(=O)N[C@@H](CCC(N)=O)C(=O)N[C@@H](CCCCN)C(=O)NC(C)(C)C(=O)N[C@@H](CCC(N)=O)C(=O)N[C@@H](CCCNC(=N)N)C(=O)N[C@@H](CCC(=O)O)C(=O)N[C@@H](CCC(N)=O)C(=O)N[C@@H](C)C(=O)N[C@@H](CCC(=O)O)C(=O)N[C@@H](CCCCN)C(=O)N[C@@H](CC(N)=O)C(=O)N[C@@H](CCCCN)C(=O)N[C@@H](CCCNC(=N)N)C(=O)N[C@H](C(=O)N[C@@H](CC(C)C)C(=O)N[C@@H](CCC(=O)O)C(=O)N[C@@H](CCCNC(=N)N)C(=O)N[C@H](C(N)=O)C(C)C)[C@@H](C)CC)[C@@H](C)CC)[C@@H](C)CC)C(C)C)C(C)C [compound 142] (H-IVLSLD[dV]PIKLK([AEEA-AEEA-γGlu-C18 diacid])QILLEQARQK[Aib]QREQAEKNKRILERV-NH2; N-terminus assumed),0.05,0.2,,,> 8700,,,,No,>45,1.42,3.63 ± 0.14,100 ± 0,3.59 ± 0.04,100 ± 0
CC[C@H](C)[C@H](NC(=O)[C@H](CCC(N)=O)NC(=O)[C@H](CCCCNC(=O)COCCOCCNC(=O)COCCOCCNC(=O)CC[C@H](NC(=O)CCCCCCCCCCCCCCCCC(=O)O)C(=O)O)NC(=O)[C@H](CC(C)C)NC(=O)[C@H](CCCCN)NC(=O)[C@@H](NC(=O)[C@@H]1CCCN1C(=O)[C@@H](NC(=O)[C@H](CC(=O)O)NC(=O)[C@H](CC(C)C)NC(=O)[C@H](CO)NC(=O)[C@H](CC(C)C)NC(=O)[C@@H](NC(=O)[C@@H](N)Cc1ccccc1)[C@@H](C)O)C(C)C)[C@@H](C)CC)C(=O)N[C@@H](CC(C)C)C(=O)N[C@@H](CC(C)C)C(=O)N[C@@H](CCCCN)C(=O)N[C@@H](CCC(N)=O)C(=O)N[C@@H](CCC(=O)O)C(=O)N[C@@H](CCCNC(=N)N)C(=O)N[C@@H](CCC(N)=O)C(=O)N[C@@H](CCCCN)C(=O)N[C@@H](CCCCN)C(=O)N[C@@H](CCC(N)=O)C(=O)N[C@@H](CCCNC(=N)N)C(=O)N[C@@H](CCC(N)=O)C(=O)N[C@@H](CCCCN)C(=O)N[C@@H](C)C(=O)N[C@@H](CCCCN)C(=O)N[C@@H](CCCCN)C(=O)N[C@@H](CC(N)=O)C(=O)N[C@@H](CCCCN)C(=O)N[C@@H](CCC(N)=O)C(=O)N[C@H](C(=O)N[C@@H](CC(C)C)C(=O)N[C@@H](CCC(=O)O)C(=O)N[C@@H](CCCNC(=N)N)C(=O)N[C@H](C(N)=O)C(C)C)[C@@H](C)CC [compound 146] (H-FTLSLDVPIKLK([AEEA-AEEA-γGlu-C18 diacid])QILLKQERQKKQRQKAKKNKQILERV-NH2; N-terminus assumed),0.11,0.22,> 1000,1.03,,> 8800,No,>45,No,>45,4.36,,,,
